Laboratory results as given in article PMC7615343, “Fluorination Influences the Bioisostery of Myo-Inositol Pyrophosphate Analogs” (Chemistry (Weinheim an der Bergstrasse, Germany), 2023).

Target: T1, PPIP5K2^1-366 (human PPIP5K2 kinase domain) (Homo sapiens, UniProt O43314)
T1 construct: one comprised residues 1–366; made in house
T1 sequence (O43314 1-366): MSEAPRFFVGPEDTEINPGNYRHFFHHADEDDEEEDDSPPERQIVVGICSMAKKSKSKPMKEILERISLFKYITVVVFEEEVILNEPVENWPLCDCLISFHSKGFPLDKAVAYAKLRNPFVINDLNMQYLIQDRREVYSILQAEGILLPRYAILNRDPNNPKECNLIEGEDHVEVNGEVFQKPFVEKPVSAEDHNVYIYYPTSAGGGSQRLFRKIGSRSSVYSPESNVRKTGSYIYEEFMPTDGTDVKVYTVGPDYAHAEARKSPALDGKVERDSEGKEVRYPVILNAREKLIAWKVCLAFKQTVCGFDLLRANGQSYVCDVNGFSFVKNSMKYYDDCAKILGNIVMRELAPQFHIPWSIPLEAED
Assay: Isothermal titration calorimetry of ligand binding to PPIP5K2KD
Conditions: ITC, 25°C; for ΔH / ΔS: 7.5 μM PPIP5K2^1-366, 75 μM ligand, pH 7.2; for Kd: 7.5 μM PPIP5K2^1-366 in cell, 75 μM ligand in syringe, pH 7.2, 1mM AMP-PNP, 1mM MgCl2, read-out: Kd (apparent)
Text: We next used isothermal titration calorimetry (ITC) to analyze the interactions of PPIP5K2^KD with 5PP-IP5 and each of the four analogs studied herein (Figure 5A-E). […] At the same time, the enthalpic gain for binding was largest for 5PCF2Am-IP5 and 5PA-IP5. A possible explanation may be that these two ligands are less strongly hydrated, due to their lower overall charge. The enthalpic cost for dehydration of 5PCF2Am-IP5 and 5PA-IP5 is therefore lower, compared to the other molecules, resulting in a higher enthalpic gain overall. A less strongly hydrated ligand will also release fewer water molecules upon binding, consistent with the lower entropic gains.
Figure 5 Analysis of ligand binding to the PPIP5K2^KD by ITC. Test solutions contained 7.5 μM of PPIP5K2^1-366 in the sample cell and 75 μM ligand in the syringe. Other details are provided in the Methods Section. Representative thermograms (1 of 3 replicates) are shown for titration of either (A) 5PP-IP5; (B) 5PCPF2P-IP5; (C) 5PCP-IP5; (D) 5PCF2Am-IP5; (E) 5PA-IP5. (F) Corresponding thermodynamic data. TEXT PRINTED IN THE PICTURE: (F) 5PP-: Kd (nM): 123 ± 13; ΔH (kJ/mol): -26 ± 2; ΔS (kJ/mol/deg): 0.046 ± 0.008 | (F) 5PCF2-: Kd (nM): 246 ± 10; ΔH (kJ/mol): -16 ± 1; ΔS (kJ/mol/deg): 0.072 ± 0.005 | (F) 5PCP-: Kd (nM): 100 ± 10; ΔH (kJ/mol): -20 ± 2; ΔS (kJ/mol/deg): 0.067 ± 0.016 | (F) 5PCF2-Am-: Kd (nM): 90 ± 13; ΔH (kJ/mol): -38 ± 2; ΔS (kJ/mol/deg): 0.007 ± 0.004 | (F) 5PA-: Kd (nM): 90 ± 7; ΔH (kJ/mol): -36 ± 3; ΔS (kJ/mol/deg): 0.013 ± 0.008 […]
(§1) Calorimetry experiments were performed using a MicroCal PEAQ-ITC (Malvern Panalytical) with 7.5 μM recombinant PPIP5K21-366 in the sample cell and 75 μM of ligand in the syringe, each of which was maintained at 25°C in buffer containing 20 mM HEPES, pH 7.2, 150 mM KCl, 0.05 mM EDTA, 1mM AMP-PNP, 1mM MgCl2 as indicated. The sample cell (volume = 204 μL) and the syringe were cleaned before each run. Thermograms were constructed from 13 injections, each of which involved 3 μL of ligand delivered for 6 s, with an equilibration time of 150-300 s between each injection. The stirring speed was set to 750 rpm. Data were fitted to a single binding site model using the analysis software provided by the manufacturer. At least three runs were performed for each condition.
Protein expression and purification.
Throughout the main text, PPIP5K2KD is deployed as an abbreviation for the human PPIP5K2 kinase domain. However, two different constructs were utilized, as described in the figure legends and within the Methods section below: one comprised residues 1–366 (PPIP5K21-366) and the other comprised residues 41–366 (PPIP5K241-366). Both constructs were expressed and purified as described previously.[6] The human DIPP1 construct (residues 1-148) was expressed and purified as described in [7]. […]
The molecular graphics representations wer e prepared with the program PyMol (Schrödinger, LLC). Atomic coordinates an d structure factors have been deposited with the Protein Data Bank with accession codes 8G9C, 8G9D, 8G9E.
PPIP5K2KD reverse kinase assay […]
Isothermal titration calorimetry
as §1, with “PPIP5K21–366” for “PPIP5K21-366”, “2 04 µL)” for “204 μL)”, “µL” for “μL”, “150 -300” for “150-300”, “cond ition. […]” for “condition.”

ΔH [kJ/mol]	ΔS [kJ/mol/deg]	Kd [nM]	SMILES
-20 ± 2	0.067 ± 0.016	100 ± 10	O=P(O)(O)CP(=O)(O)O[C@H]1[C@H](OP(=O)(O)O)[C@@H](OP(=O)(O)O)[C@@H](OP(=O)(O)O)[C@@H](OP(=O)(O)O)[C@@H]1OP(=O)(O)O [5PCP-IP5]
-16 ± 1	0.072 ± 0.005	246	O=P(O)(O)O[C@H]1[C@@H](OP(=O)(O)O)[C@H](OP(=O)(O)O)[C@@H](OP(=O)(O)C(F)(F)P(=O)(O)O)[C@H](OP(=O)(O)O)[C@H]1OP(=O)(O)O [5PCF2P-IP5]
